Where a name gives a salt, the structure may show the parent alone. Read-outs that look alike come from different tables or passages of the source.
Columns and labels:
Assay type in all cases: in vivo
[1] = tested on: Digitaria sanguinalis; test: Test Example 2 foliage treatment test, fresh weight of aerial part; Colby expected value; conditions: foliar, 480 h, read-out: Growth Inhibition Rate (%) Found
Description: However, there may be a case that when two kinds of active ingredients are applied in combination, the resulting herbicidal activity is higher than one obtained by simply summing up the activity of each of the two active ingredients (i.e., an expected activity). In such a case, it is said that a synergistic action is found. The expected activity which is brought by a specific combination of two kinds of herbicides can be calculated by the following equation as described, for example, in S.R. Colby, Weeds, "Calculating Synergistic and Antagonistic Responses of Herbicide Combinations", Vol. 15, pp. 20-22 (1967). E = α + β -(α x β)/(100) [formula] In the above equation, α represents a growth inhibition rate (%) when treated with a (g/are) of herbicide A; β represents a growth inhibition rate (%) when treated with b (g/are) of herbicide B; and E represents an expected growth inhibition rate (%) when treated with a (g/are) of herbicide A and b (g/are) of herbicide B.
Upland soil was placed in 1/10000-are pots and sown with Digitaria sanguinalis. When the plants reached the four-leaf stage, a predetermined amount of each herbicidal composition which had been diluted with 15 ℓ, per are, of water and further admixed with 0.2 % (v/v) of a spreader (Shin Rino®) was foliarly applied on the plants using a small spray gun. 20 days after the foliage treatment application, the fresh weight of the aerial part of the plant was measured. The growth inhibition rate (%) calculated by the equation given in Test Example 1 (found value) and the growth inhibition rate (%) calculated by the above-cited Colby equation (calculated value) are listed in Table 2.

[2] = tested on: weeds such as Solidago altissima, Agropyron smithii and Digitaria sanguinalis; test: Test Example 3 field foliage treatment test, visual rating of herbicidal effect; conditions: visual observation 30 days after foliage treatment
Description: In a field where weeds such as Solidago altissima, Agropyron smithii and Digitaria sanguinalis had been growing mixedly, foliage treatment application of a predetermined amount of each herbicidal composition which had been diluted with 15 ℓ, per are, of water and further admixed with 0.05 % (v/v) of a spreader (Shin Rino®) was done using a small spray gun when the average plant height of these weeds reached 20 to 40 cm. 30 days after the foliage treatment application, the herbicidal effect of the herbicidal composition was examined through visual observation according to the following evaluation criteria.

[3] = tested on: Solidago altissima; test: Test Example 1 foliage treatment test, fresh weight of foliage; conditions: foliar, 600 h, read-out: Growth Inhibition Rate (%)
Description: Upland soil was placed in 1/5000-are (are (a) = 100 m²) wagner pots and planted with hills of Solidago altissima collected in the fields, and the hills were thereafter grown in a greenhouse. When the plant height reached 20 to 30 cm, a predetermined amount of each herbicidal composition which had been diluted with 15 ℓ, per are, of water and further admixed with 0.05 % (v/v) of a spreader (Shin Rino®: manufactured by Nihon Nohyaku Co., Ltd.) was foliarly applied on the plants using a small spray gun. 25 days after the foliage treatment application, the fresh weight of foliage was measured. The growth inhibition rate (%), which is listed in Table 1, was calculated according to the following equation: Growth Inhibition Rate (%) = (1 -(Fresh Weight of Foliage in Treated Plot)/(Fresh Weight of Foliage in Untreated Plot)) x 100 [formula]

`CP(=O)(O)CCC(N)C(=O)O` (racemic) [Ammonium salt of D,L-isomer of Compound B, D,L-homoalanin-4-yl(methyl)phosphinic acid] gave an inhibition at 30 g/ha [1] of 0.9%, an inhibition at 50 g/ha [1] of 12.8% and an inhibition at 100 g/ha [1] of 35.8%. For the same compound, the inhibition at 200 g/ha [1] was 52.3%, the inhibition at 300 g/ha [1] was 85% and the inhibition at 400 g/ha [1] was 90%. For the same compound, the inhibition at 1000 g/ha [1] was 100%, the Rating ([2]; 5 g/a active ingredient) was 5 (50 to 59) and the Rating ([2]; 10 g/a active ingredient) was 7 (70 to 79). The inhibition at 250 g/ha [3] was 55%, the inhibition at 500 g/ha [3] was 72% and the inhibition at 1000 g/ha [3] was 84%.
For `CP(=O)(O)CC[C@H](N)C(=O)O` [Ammonium salt of L-isomer of Compound B, L-homoalanin-4-yl(methyl)phosphinic acid], the Rating ([2]; 5 g/a active ingredient) was 5 (50 to 59), the Rating ([2]; 10 g/a active ingredient) was 6 (60 to 69) and the inhibition at 125 g/ha [3] was 48%. It also gave an inhibition at 250 g/ha [3] of 68% and an inhibition at 500 g/ha [3] of 77%.
With `COc1cc(OC)nc(NC(=O)NS(=O)(=O)c2ncccc2C(F)(F)F)n1` [Compound A, 1-(4,6-dimethoxypyrimidin-2-yl)-3-(3-trifluoromethyl-2-pyridylsulfonyl)urea] the inhibition at 5 g/ha ([1]; 0.05 g/a active ingredient, 20 days after foliage treatment) was 0%, the inhibition at 10 g/ha ([1]; 0.1 g/a active ingredient, 20 days after foliage treatment) was 3.5% and the inhibition at 20 g/ha ([1]; 0.2 g/a active ingredient, 20 days after foliage treatment) was 5.3%. The inhibition at 40 g/ha ([1]; 0.4 g/a active ingredient, 20 days after foliage treatment) was 16.9%, the inhibition at 60 g/ha ([1]; 0.6 g/a active ingredient, 20 days after foliage treatment) was 47.4% and the inhibition at 100 g/ha ([1]; 1 g/a active ingredient, 20 days after foliage treatment) was 67.3%. The inhibition at 500 g/ha ([1]; 5 g/a active ingredient, 20 days after foliage treatment) was 99.4%, the Rating ([2]; 0.5 g/a active ingredient) was 5 (50 to 59) and the Rating ([2]; 1 g/a active ingredient) was 6 (60 to 69). It also gave an inhibition at 25 g/ha ([3]; 0.25 g/a active ingredient, 25 days after foliage treatment) of 46%, an inhibition at 50 g/ha ([3]; 0.5 g/a active ingredient, 25 days after foliage treatment) of 51% and an inhibition at 100 g/ha ([3]; 1 g/a active ingredient, 25 days after foliage treatment) of 63%.
In the case of `C[C@H](NC(=O)[C@H](C)NC(=O)C(N)CCP(C)(=O)O)C(=O)O` (stereo partly drawn) [Sodium salt of L-isomer of Compound C, L-2-amino-4-[(hydroxy)(methyl)phosphinoyl]butyryl-L-alanyl-L-alanine], the Rating ([2]; 5 g/a active ingredient) is reported as 5 (50 to 59), the Rating ([2]; 10 g/a active ingredient) is reported as 6 (60 to 69) and the inhibition at 250 g/ha ([3]; 2.5 g/a active ingredient, 25 days after foliage treatment) is reported as 51%. The inhibition at 500 g/ha ([3]; 5 g/a active ingredient, 25 days after foliage treatment) was 70% and the inhibition at 1000 g/ha ([3]; 10 g/a active ingredient, 25 days after foliage treatment) was 79%.
